Source: PMC10202292, “The exquisite specificity of human protein arginine methyltransferase 7 (PRMT7) toward Arg-X-Arg sites” (PLOS ONE, 2023)
Where two headings read alike, the source gives them in different places.

Key:
GST-HsPRMT7 [1] = molecular target: T1, GST-HsPRMT7 (Homo sapiens, UniProt Q9NVM4); test: Michaelis-Menten kinetics of peptide substrate methylation (P81 phosphocellulose paper assay); assay type: biochemical; set-up: key to Vmax, Michaelis-Menten best-fit value, Fig7 / Vmax, Michaelis-Menten best-fit value, Fig8: Vmax expressed as cpm (averages of cycles 2–4)
T1 construct: full-length human PRMT7 (residues 1–692); 34693; host or cells: E. coli BL21 DE3
T1 sequence (Q9NVM4 1-692): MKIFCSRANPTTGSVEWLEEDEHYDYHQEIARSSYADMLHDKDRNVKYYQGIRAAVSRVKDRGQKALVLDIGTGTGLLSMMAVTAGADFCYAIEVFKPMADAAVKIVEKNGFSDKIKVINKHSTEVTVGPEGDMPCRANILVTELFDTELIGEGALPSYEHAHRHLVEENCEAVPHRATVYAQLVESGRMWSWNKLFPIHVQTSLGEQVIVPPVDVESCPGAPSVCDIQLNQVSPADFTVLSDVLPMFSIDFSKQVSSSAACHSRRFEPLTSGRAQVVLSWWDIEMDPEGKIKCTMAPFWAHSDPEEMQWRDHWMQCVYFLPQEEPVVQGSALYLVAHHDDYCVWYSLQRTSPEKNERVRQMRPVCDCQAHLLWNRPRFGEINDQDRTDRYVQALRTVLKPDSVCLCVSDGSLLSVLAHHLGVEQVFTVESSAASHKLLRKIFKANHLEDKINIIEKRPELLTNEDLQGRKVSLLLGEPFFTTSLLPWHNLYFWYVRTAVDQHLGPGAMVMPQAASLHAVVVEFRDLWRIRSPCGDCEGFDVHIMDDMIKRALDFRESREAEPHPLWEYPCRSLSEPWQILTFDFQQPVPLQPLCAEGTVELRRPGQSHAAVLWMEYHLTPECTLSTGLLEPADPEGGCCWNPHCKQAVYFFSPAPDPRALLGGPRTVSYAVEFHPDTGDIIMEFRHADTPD
Protocol: (§1) In vitro methylation assays were performed with GST-HsPRMT7, the indicated substrate protein or peptide, and 1.4 μM S-adenosyl-L-[methyl-^3H]methionine ([^3H]-AdoMet; PerkinElmer cat no. NET155V), prepared from diluting a stock of 7.0 μM [^3H]-AdoMet (81.9 Ci/mmol, 1 mCi/mL in 9:1 10 mM H2SO4:EtOH, v/v) in 10 mM HCl. All reactions were performed using distilled water buffered with 50 mM potassium HEPES, pH 9.5 and 1 mM DTT, reaching a final reaction volume of 30 μL. The reactions were initiated by adding [^3H]-AdoMet to a final concentration of 0.14 μM. Control reactions (enzyme-only, substrate-only) contained distilled water instead of substrate or GST-HsPRMT7, respectively. After initiation with [^3H]-AdoMet, all reactions analyzed via P81 phosphocellulose filter paper assay were incubated in a water bath at 25°C unless otherwise indicated for the specified time periods and were terminated with 0.5 μL 100% (w/v) trifluoroacetic acid (TFA). P81 assays performed at t = 0 were individually terminated immediately following initiation. Samples analyzed via SDS-PAGE were incubated at 4°C for 24 hours and were quenched by adding 5x SDS sample loading buffer (250 mM Tris-HCl, pH 6.8; 10% SDS, 30% glycerol, 10% β-mercaptoethanol, 0.2% bromophenol blue), followed by heating at 97°C for 3 min.
(§2) In vitro methylation assays with GST-HsPRMT7, selected methyl-accepting substrates, and [^3H]-AdoMet were set up as described previously and performed in triplicate. Following incubation at 25°C unless otherwise indicated for the time periods specified, all samples were quenched with 0.5 μL 100% TFA and centrifuged at 9,300 g for 10 seconds in an Eppendorf centrifuge (Model 5417C). 1 cm^2 pieces of P81 phosphocellulose filter paper (LabAlley catalog no. 05-717-2A) were spotted with 25 μL from each reaction mixture and set to dry overnight. The following day, all filter paper pieces were washed three times with 50 mM sodium bicarbonate solution, pH 9.0, and dried again in liquid scintillation vials. After 5 mL of Safety Solve fluor (RPI industries) was added to each vial, [^3H] radioactivity in each sample was quantified via liquid scintillation counter (Beckman LS6500) for four total cycles at 5 minutes per sample. All data presented are expressed as averages of the cpm from cycles 2–4.
(§3) Statistical analyses were performed using the “Analyze Data” function on GraphPad Prism v.8.0.1. To determine statistical significance, unpaired homoscedastic two-tailed Student’s t tests were performed with significance level α = 0.05 with the relevant data. To obtain apparent km and Vmax values, kinetic data were analyzed by non-linear regression using the Michaelis-Menten equation.

human PRMT7 = settings: addition of 50 mM NaCl or KCl; cited from earlier work
Protocol: Comparatively, a previous study of ionic strength in human HEK293 cells estimates the intracellular concentration of potassium ions to be about 120–140 mM in human cells. As such, our results in Fig 7 led us to question whether this dramatic decrease in activity may be associated with a loss of either substrate-enzyme binding affinity or catalytic activity. || We confirm that human PRMT7 activity is quite sensitive to changes in the RXR target sequence in the substrate protein. […] The exquisite specificity of PRMT7 toward the basic RXR motif can be contrasted to the much broader speci ...

GST-HsPRMT7 [2] = molecular target: T1, GST-HsPRMT7; test: P81 phosphocellulose filter paper methylation assay with peptide substrates (cpm, end point and time course); assay type: biochemical; settings: 10 μM peptide
Protocol: as §1, §2, §3

PRMT9 = settings: methylation of SF3B2 at Arg508 (505-CFKRKYL-511); cited from earlier work
Text: We confirm that human PRMT7 activity is quite sensitive to changes in the RXR target sequence in the substrate protein. […] The exquisite specificity of PRMT7 toward the basic RXR motif can be contrasted to the much broader speci ...

Row | Molecule | Km (GST-HsPRMT7 [1]; + 130 mM KCl, 5 μg GST-HsPRMT7, 0.14 μM [3H]-AdoMet, 60 min, 25°C, GraphPad Prism fit, read-out: Km, Michaelis-Menten best-fit value, Fig8) | Km (GST-HsPRMT7 [1]; +130 mM KCl, apparent km, 5 μg GST-HsPRMT7, various peptide concentrations, 0.14 μM [3H]-AdoMet, 60 min, 25°C, pH 9.5, Michaelis-Menten fit, triplicates (Fig 8), read-out: km) | Km (GST-HsPRMT7 [1]; no added salt, apparent km of peptide substrate, 5 μg GST-HsPRMT7, various peptide concentrations, 0.14 μM [3H]-AdoMet, 60 min, 25°C, pH 9.5, Michaelis-Menten fit, triplicates (Fig 8), read-out: km) | Vmax, Michaelis-Menten best-fit value, Fig8 (GST-HsPRMT7 [1]; no salt, 5 μg GST-HsPRMT7, 0.14 μM [3H]-AdoMet, 60 min, 25°C, GraphPad Prism fit) | Km (GST-HsPRMT7 [1]; no salt, 5 μg GST-HsPRMT7, 0.14 μM [3H]-AdoMet, 60 min, 25°C, GraphPad Prism fit, read-out: Km, Michaelis-Menten best-fit value, Fig8) | increase of apparent km on adding 130 mM KCl (GST-HsPRMT7 [1]; with vs without 130 mM KCl (Fig 8, Table 2)) | change of Vmax after adding 130 mM KCl (GST-HsPRMT7 [1]; with vs without 130 mM KCl (Fig 8, Table 2), in words) | change of GST-HsPRMT7 activity on addition of salt (human PRMT7) | methylation activity (GST-HsPRMT7 [2]; 5 μg GST-HsPRMT7, 0.14 μM [3H]-AdoMet, 25°C, 1 hour (Fig 4), approximate) | methylation activity (maximum value) (GST-HsPRMT7 [2]; 5 μg GST-HsPRMT7, 0.14 μM [3H]-AdoMet, 25°C, t = 120 min (Fig 6), approximate) | methylation activity (maximum) (GST-HsPRMT7 [2]; 5 μg GST-HsPRMT7, 0.14 μM [3H]-AdoMet, 25°C, t = 3 hours (Fig 4), approximate) | GST-HsPRMT7 methylation activity (GST-HsPRMT7 [2]; 5 μg GST-HsPRMT7, 0.14 μM [3H]-AdoMet, 40 min, 25°C (Fig 3), in words) | PRMT7 methylation activity (GST-HsPRMT7 [2]; 5 μg GST-HsPRMT7, 0.14 μM [3H]-AdoMet, 20 h, 4°C (Fig 5), in words) | Mean of GST-HsPRMT7 + peptide, Fig3 (GST-HsPRMT7 [2]; mean of n = 3, 40 min, 25°C) | Difference between means ± SEM vs peptide only, Fig3 (GST-HsPRMT7 [2]; n = 3, 40 min, 25°C, SEM) | Km (PRMT9)
1 | Ac-KKDGKKRKRSRKESY-NH2 [Hs H2B (23–37), synthetic peptide of amino acids 23–37 of human histone H2B, PRMT7 substrate used as positive control, reference compound] | 16.8 µM | 17 µM | 0.6 µM | 17053 | 0.558 µM | 30 fold | relatively unchanged | decreases by half | approximately 6,000 cpm | about 4,000 cpm | approximately 8,000 cpm | highest | highest PRMT7 methylation activity | 1604 cpm | 1523 ± 86.54 cpm | –
2 | SF3B2: splicing factor SF3B2, methylated by PRMT9 at Arg508 (protein, UniProt Q13435 1-895, looked up) Splicing factor 3B subunit 2: MATEHPEPPKAELQLPPPPPPGHYGAWAAQELQAKLAEIGAPIQGNREELVERLQSYTRQTGIVLNRPVLRGEDGDKAAPPPMSAQLPGIPMPPPPLGLPPLQPPPPPPPPPPGLGLGFPMAHPPNLGPPPPLRVGEPVALSEEERLKLAQQQAALLMQQEERAKQQGDHSLKEHELLEQQKRAAVLLEQERQQEIAKMGTPVPRPPQDMGQIGVRTPLGPRVAAPVGPVGPTPTVLPMGAPVPRPRGPPPPPGDENREMDDPSVGPKIPQALEKILQLKESRQEEMNSQQEEEEMETDARSSLGQSASETEEDTVSVSKKEKNRKRRNRKKKKKPQRVRGVSSESSGDREKDSTRSRGSDSPAADVEIEYVTEEPEIYEPNFIFFKRIFEAFKLTDDVKKEKEKEPEKLDKLENSAAPKKKGFEEEHKDSDDDSSDDEQEKKPEAPKLSKKKLRRMNRFTVAELKQLVARPDVVEMHDVTAQDPKLLVHLKATRNSVPVPRHWCFKRKYLQGKRGIEKPPFELPDFIKRTGIQEMREALQEKEEQKTMKSKMREKVRPKMGKIDIDYQKLHDAFFKWQTKPKLTIHGDLYYEGKEFETRLKEKKPGDLSDELRISLGMPVGPNAHKVPPPWLIAMQRYGPPPSYPNLKIPGLNSPIPESCSFGYHAGGWGKPPVDETGKPLYGDVFGTNAAEFQTKTEEEEIDRTPWGELEPSDEESSEEEEEEESDEDKPDETGFITPADSGLITPGGFSSVPAGMETPELIELRKKKIEEAMDGSETPQLFTVLPEKRTATVGGAMMGSTHIYDMSTVMSRKGPAPELQGVEVALAPEELELDPMAMTQKYEEHVREQQAQVEKEDFSDMVAEHAAKQKQKKRKAQPQDSRGGSKKYKEFKF | – | – | – | – | – | – | – | – | – | – | – | – | – | – | – | 80 nM
